Marks after values point to notes of the source that are not given here.
What was measured:
α1β3γ2 GABAA receptors = molecular target: T1, α1β3γ2 GABAA receptors (Homo sapiens, UniProt P14867+P18507); test: Voltage clamp recordings from Xenopus oocytes; format: cell-based
T1 construct: expressed in transfected cells; host or cells: Xenopus laevis oocytes injected with cRNA
Experimental: The GABAA subunit selectivity of several compounds prepared as described above were determined using voltage clamp recordings from Xenopus oocytes that expressed that αxβ3γ2 GABAA receptor.
In Vitro Expression of GABAA Receptor Subunits The methods used for isolating, culturing, injecting and defolliculating of the oocytes were identical with those described by E. Sigel. […] European journal of pharmacology 1995, 289, (1), 87-95; Sigel, E.;& Baur, R., Allosteric modulation by benzodiazepine receptor ligands of the GABAA receptor channel expressed in Xenopus oocytes. J. Neurosci. 1988, 8, (1), 289-95; Sigel, E.; & Minier, F., The Xenopus oocyte: System for the study of functional expression and modulation of proteins. Molecular Nutrition & Food Research 2005, 49, (3), 228-234. Mature female Xenopus laevis (Nasco, Wis.) were anaesthetized in a bath of ice-cold 0.17% Tricain (Ethyl-m-aminobenzoate, Sigma, Mo.) before decapitation and removal of the frog ovary. Stage 5 to 6 oocytes with the follicle cell layer around them were singled out of the ovary using a platinum wire loop. […]
Voltage Clamp Recordings From Xenopus Oocytes. […] Data were digitized, recorded and measured using a Digidata 1322A data acquisition system (Axon Instruments, Union City, Calif.). […]

[1] = system: Metrazol-induced clonic seizures; test: Subcutaneous Metrazol test (scMet), rats; format: in vivo
[2] = Toxicity (TOX), rotorod procedure, mice; format: in vivo; conditions: mouse, in vivo; Mice IP, rotorod; read-out: TD50 TOX
[3] = molecular target: T2, GABAA/α2 (α2β3γ2 GABAA receptors) (Homo sapiens, UniProt P18507+P47869); test: Competitive binding assay, [3H]flunitrazepam; conditions: Binding Affinity at GABAA/α2, αxβ3γ2, [3H]flunitrazepam competition
T2 construct: expressed in transfected cells
Outline: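 Bound ligand was collected on 0.3% polyethyleneimine-pretreated GF/C filters with three ice-cold washes and quantified by liquid scintillation counting; membrane protein was determined against a BSA standard.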

Structure (SMILES)	efficacy at α1 (percent of control current) (α1β3γ2 GABAA receptors)	ED50 ([1]; Rat IP)	scMet, animals protected/tested ([1]; Rat IP, 100 mg/kg, 0.5 hr)	scMet, animals protected/tested ([1]; Rat IP, 100 mg/kg, 4.0 hr)	ED50 ([1]; Rat PO)	scMet, animals protected/tested ([1]; Rat PO, 50 mg/kg, 0.5 h)	scMet, animals protected/tested ([1]; Rat PO, 50 mg/kg, 1.0 h)	scMet, animals protected/tested ([1]; Rat PO, 50 mg/kg, 2.0 h)	scMet, animals protected/tested ([1]; Rat PO, 50 mg/kg, 4.0 h)	scMet, animals protected/tested ([1]; Rat PO, 50 mg/kg, […])	TD50 [2]	scMet, animals protected/tested ([1]; Rat PO, 40 mg/kg, 4.0 h)	scMet, animals protected/tested ([1]; Rat PO, 40 mg/kg, 6.0 h)	Ki [3]
C#Cc1ccc2c(c1)C(c1ccccn1)=NCc1c(C(=O)OCC)ncn1-2 [Hz166 (106), 8-Acetylenyl-6-pyridin-2-yl-4H-benzo[f]imidazo[1,5-a][1,4]diazepine-3-carboxylic acid ethyl ester]	255%	35.5 mg/kg	7/8	5/8	98.5 mg/kg	4/4	2/4	1/4	0/4	0/4	> 500 mg/kg			
C#Cc1ccc2c(c1)C(c1ccccc1F)=NCc1c(C(=O)OCC)ncn1-2 [JY-XHe-053 (15), Ethyl-8-acetyleno-6-(2′-fluorophenyl)-4H-benzo[f]imidazo[1,5-a][1,4]diazepine-3-carboxylate]	289%	18.2 mg/kg	3/4	3/4	23.7 mg/kg	3/4	3/4	1/4	4/4	1/4	> 400 mg/kg	2/4^e	2/4^e	12.3 nM
C#Cc1ccc2c(c1)C(c1ccccc1)=N[C@H](C)c1nnc(C)n1-2 [SH-TR-CH3 (146), (4R)-8-Ethynyl-1,4-dimethyl-6-phenyl-4H-benzo[f][1,2,4]triazolo[4,3-a][1,4]diazepine]														1530 nM
